In ChEMBL document CHEMBL4627246, “Pyroglutamide-Based P2X7 Receptor Antagonists Targeting Inflammatory Bowel Disease” (J Med Chem, 2020):

Columns and labels:
Assay type in all cases: cell-based
HOP-92 = assay: Cytotoxicity against human HOP92 cells assessed as effect on cell growth at 10 uM incubated for 48 hrs by sulforhodamine B assay; conditions: hop-92, 48 h
786-0 = assay: Cytotoxicity against human 786-0 cells assessed as effect on cell growth at 10 uM incubated for 48 hrs by sulforhodamine B assay; conditions: 786-0, 48 h
NCI-H322M = assay: Cytotoxicity against human NCI-H322M cells assessed as effect on cell growth at 10 uM incubated for 48 hrs by sulforhodamine B assay
DU-145 = assay: Cytotoxicity against human DU145 cells assessed as effect on cell growth at 10 uM incubated for 48 hrs by sulforhodamine B assay; conditions: du-145, 48 h
M14 = assay: Cytotoxicity against human M14 cells assessed as effect on cell growth at 10 uM incubated for 48 hrs by sulforhodamine B assay; conditions: m14, 48 h
HL-60(TB) = assay: Cytotoxicity against human HL-60(TB) cells assessed as effect on cell growth at 10 uM incubated for 48 hrs by sulforhodamine B assay
NCI-H226 = assay: Cytotoxicity against human NCI-H226 cells assessed as effect on cell growth at 10 uM incubated for 48 hrs by sulforhodamine B assay; conditions: nci-h226, 48 h
OVCAR-5 = assay: Cytotoxicity against human OVCAR5 cells assessed as effect on cell growth at 10 uM incubated for 48 hrs by sulforhodamine B assay; conditions: ovcar-5, 48 h
U-251 = assay: Cytotoxicity against human U251 cells assessed as effect on cell growth at 10 uM incubated for 48 hrs by sulforhodamine B assay; conditions: u-251, 48 h
Malme-3M = assay: Cytotoxicity against human MALME-3M cells assessed as effect on cell growth at 10 uM incubated for 48 hrs by sulforhodamine B assay
SF-268 = assay: Cytotoxicity against human SF268 cells assessed as effect on cell growth at 10 uM incubated for 48 hrs by sulforhodamine B assay; conditions: sf-268, 48 h
MCF7 = assay: Cytotoxicity against human MCF7 cells assessed as effect on cell growth at 10 uM incubated for 48 hrs by sulforhodamine B assay; conditions: mcf7, 48 h
HCT-15 = assay: Cytotoxicity against human HCT15 cells assessed as effect on cell growth at 10 uM incubated for 48 hrs by sulforhodamine B assay; conditions: hct-15, 48 h
SK-MEL-5 = assay: Cytotoxicity against human SK-MEL-5 cells assessed as effect on cell growth at 10 uM incubated for 48 hrs by sulforhodamine B assay; conditions: sk-mel-5, 48 h
HCT-116 = assay: Cytotoxicity against human HCT116 cells assessed as effect on cell growth at 10 uM incubated for 48 hrs by sulforhodamine B assay; conditions: hct-116, 48 h
PC-3 = assay: Cytotoxicity against human PC3 cells assessed as effect on cell growth at 10 uM incubated for 48 hrs by sulforhodamine B assay; conditions: pc-3, 48 h
EKVX = assay: Cytotoxicity against human EKVX cells assessed as effect on cell growth at 10 uM incubated for 48 hrs by sulforhodamine B assay
MDA-MB-468 = assay: Cytotoxicity against human MDA-MB-468 cells assessed as effect on cell growth at 10 uM incubated for 48 hrs by sulforhodamine B assay; conditions: mda-mb-468, 48 h
MDA-MB-231 = assay: Cytotoxicity against human MDA-MB-231 cells assessed as effect on cell growth at 10 uM incubated for 48 hrs by sulforhodamine B assay; conditions: mda-mb-231, 48 h
UACC-62 = assay: Cytotoxicity against human UACC62 cells assessed as effect on cell growth at 10 uM incubated for 48 hrs by sulforhodamine B assay; conditions: uacc-62, 48 h

Measured: Activity

COc1cc(CNC(=O)[C@@H]2CCC(=O)N2)cc(OC)c1OC
Non-Toxic: HOP-92 | 786-0 | NCI-H322M | DU-145 | M14 | HL-60(TB) | NCI-H226 | OVCAR-5 | U-251 | Malme-3M | SF-268 | MCF7 | HCT-15 | SK-MEL-5 | HCT-116 | PC-3 | EKVX | MDA-MB-468 | MDA-MB-231 | UACC-62

CN(Cc1ccccc1)C(=O)[C@@H]1CCC(=O)N1Cc1ccc(Cl)cc1Cl
Non-Toxic: HOP-92 | 786-0 | NCI-H322M | DU-145 | M14 | HL-60(TB) | NCI-H226 | OVCAR-5 | U-251 | Malme-3M | SF-268 | MCF7 | HCT-15 | SK-MEL-5 | HCT-116 | PC-3 | EKVX | MDA-MB-468 | MDA-MB-231 | UACC-62

COC(=O)[C@@H]1C/C(=C\NCc2ccc(Cl)cc2Cl)C(=O)N1C(=O)OC
Non-Toxic: HOP-92 | 786-0 | NCI-H322M | DU-145 | M14 | HL-60(TB) | NCI-H226 | OVCAR-5 | U-251 | Malme-3M | SF-268 | MCF7 | HCT-15 | SK-MEL-5 | HCT-116 | PC-3 | EKVX | MDA-MB-468 | MDA-MB-231 | UACC-62

O=C(NCc1ccc(Cl)cc1Cl)[C@@H]1CCC(=O)N1Cc1ccccc1
Non-Toxic: HOP-92 | 786-0 | NCI-H322M | DU-145 | M14 | HL-60(TB) | NCI-H226 | OVCAR-5 | U-251 | Malme-3M | SF-268 | MCF7 | HCT-15 | SK-MEL-5 | HCT-116 | PC-3 | EKVX | MDA-MB-468 | MDA-MB-231 | UACC-62

COc1ccc(CN2C(=O)CC[C@H]2C(=O)NCCc2ccccc2)cc1
Non-Toxic: HOP-92 | 786-0 | NCI-H322M | DU-145 | M14 | HL-60(TB) | NCI-H226 | OVCAR-5 | U-251 | Malme-3M | SF-268 | MCF7 | HCT-15 | SK-MEL-5 | HCT-116 | PC-3 | EKVX | MDA-MB-468 | MDA-MB-231 | UACC-62

O=C(NCc1ccc(Cl)cc1Cl)[C@@H]1CCC(=O)N1c1ccccc1
Non-Toxic: HOP-92 | 786-0 | NCI-H322M | DU-145 | M14 | HL-60(TB) | NCI-H226 | OVCAR-5 | U-251 | Malme-3M | SF-268 | MCF7 | HCT-15 | SK-MEL-5 | HCT-116 | PC-3 | EKVX | MDA-MB-468 | MDA-MB-231 | UACC-62

O=C(NCc1ccc(Cl)cc1Cl)[C@@H]1CCC(=O)N1c1cccs1
Non-Toxic: HOP-92 | 786-0 | NCI-H322M | DU-145 | M14 | HL-60(TB) | NCI-H226 | OVCAR-5 | U-251 | Malme-3M | SF-268 | MCF7 | HCT-15 | SK-MEL-5 | HCT-116 | PC-3 | EKVX | MDA-MB-468 | MDA-MB-231 | UACC-62

O=C(NCc1ccc(Cl)cc1Cl)[C@@H]1CCC(=O)N1c1cscn1
Non-Toxic: HOP-92 | 786-0 | NCI-H322M | DU-145 | M14 | HL-60(TB) | NCI-H226 | OVCAR-5 | U-251 | Malme-3M | SF-268 | MCF7 | HCT-15 | SK-MEL-5 | HCT-116 | PC-3 | EKVX | MDA-MB-468 | MDA-MB-231 | UACC-62
